# Assay results: PubChem BioAssay AID1919009 (Molecular Pharmacology Branch, DTP, NCI, 2023)
# Values joined by “and” are separate entries in the source; they are usually repeats but may differ in a detail not shown here. Identical values can stand only once.
# Tested on: K24384-001-R-PDC complex spheroid growth
# Experiment: Anticancer human tumor K24384-001-R-PDC patient-derived pancreatic adenocarcinoma cell line growth inhibition [AhR]
# Details: for viability, T/C: stronger effect = lower value
# Source text: Multicellular complex tumor spheroid response to aryl hydrocarbon receptor antagonists in combination with a variety of drugs and investigational agents in selected tumor cell lines
# The current study was undertaken to assess response to aryl hydrocarbon receptor antagonists in combination with standard-of-care drugs and investigational agents in solid tumor complex spheroid models. Complex spheroids include a stromal component modeled by human endothelial cells (HUVEC) and fibroblasts modeled by human mesenchymal stem cells (MSCs). The concentration ranges selected for each drug and investigational agent were based upon clinically achievable concentrations if the clinical Cmax of the agent was known.
# Compounds. The drugs and investigational agents: BAY 2416964 (NSC825713), GNF351 (NSC835774), CH-223191 (NSC835775), CPI-455 (NSC825282), aza-TdCyd (NSC777586), decitabine (NSC127716), belinostat (NSC758774), entinostat (NSC756642), pevonedistat (NSC761192), tazemetostat (NSC777109), talazoparib (NSC765396), olaparib (NSC753686), selinexor (NSC780203), nedisertib (M3814, NSC802822), bortezomib (NSC756655), venetoclax (NSC766270), doxorubicin (NSC123127), elimusertib (BAY189344, NSC800525), ceralasertib (AZD6738, NSC777638), TAK-243 (NSC785004), alisertib (NSC759677), etoposide (NSC141540), topotecan (NSC609699), eribulin (NSC707389), gemcitabine (NSC613327), carboplatin (NSC241240), cisplatin (NSC119875), and SN-38 (NSC673596) were obtained from the National Cancer Institute (NCI) Developmental Therapeutics Program Chemical Repository (32). The FDA-approved anticancer drug set is available from the Developmental Therapeutics Program at https://dtp.cancer.gov/organization/dscb/obtaining/available plates.htm. […] The stock solutions were prepared in dimethyl sulfoxide (DMSO, Sigma-Aldrich, St. Louis, MO, cat. D2650), except for the platinum compounds which were prepared in saline (Quality Biological, Gaithersburg, MD, cat. 114-055-101), at 800-fold the tested concentration and stored at -70 degrees C prior to their use. All drugs and investigational agents were tested over a range starting from a high concentration at or near the clinical Cmax and decreasing in half-log increments. If the clinical Cmax for an agent had not been determined, the highest concentration tested was 10 microM (Table 1).
# Cell Culture. All cells were maintained in an incubator at 37 degrees C and 5% CO2 with 95% humidity. The PDC lines were cultured according to standard operating procedures established by the NCI PDMR (https://pdmr.cancer.gov). Briefly, all PDCs were thawed and cultured in Matrigel-coated flasks prepared with a working solution of 1X Ham's F-12 nutrient mix, without supplementation (Invitrogen, Waltham, MA, cat. 11765054), 100 U/mL penicillin-streptomycin (Invitrogen, cat. 15140122), and 2.5% Matrigel (Corning Inc., Corning, NY, cat. 354248) for the first three passages. All PDCs were cultured in complete DMEM/F-12 media containing advanced DMEM/F-12 (Invitrogen, cat. 12634028), 4.9% defined fetal bovine serum, heat inactivated (HyClone Laboratories Inc., Logan, UT, cat. SH30070.03HI), 389 ng/mL hydrocortisone (Sigma-Aldrich, cat. H4001), 9.7 ng/mL human EGF recombinant protein (Invitrogen, cat. PHG0313), 23.4 microg/mL adenine (Sigma-Aldrich, cat. A2786), 97.3 U/mL penicillin-streptomycin (Invitrogen, cat. 15140122), 1.9 mM L-glutamine (Invitrogen, cat. 25030081), and 9.7 microM Y-27632 dihydrochloride (Tocris Bioscience, Bristol, United Kingdom, cat. 1254). The PDCs were cultured in complete DMEM/F12 media without 10 microM Y-27632 dihydrochloride for at least two passages prior to the screen. The established cell lines NCI-H1341 and […] were cultured in DMEM/F-12, HEPES (Invitrogen, cat. 11330032), 5% defined fetal bovine serum (HyClone Laboratories Inc., cat. SH30070.03), ITS premix universal culture supplement [insulin (5 microg/mL), transferrin (5 microg/mL), and selenious acid (5 ng/mL)] […]
# 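For viability, T/C in this document: percent of DMSO vehicle-treated spheroid viability set as 100%.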
SMILES,IC50 (curve of compound),"viability, T/C (compound 0.0316 µM)","viability, T/C (compound 0.1 µM)","viability, T/C (compound 0.316 µM)","viability, T/C (compound 1 µM)","viability, T/C (compound 3.16 µM)","viability, T/C (compound 10 µM)",further results
CC(C)CC(NC(=O)C(Cc1ccccc1)NC(=O)c1cnccn1)B(O)O (stereo not drawn),0.012 µM and 0.0133 µM and 0.00603 µM,,,,,,,"viability, T/C (compound 0.000949 µM): 105% and 92.1% and 95.6%; viability, T/C (compound 0.003 µM): 108% and 98.8% and 96.7%; viability, T/C (compound 0.00949 µM): 62.6% and 70.1% and 20.1%; viability, T/C (compound 0.03 µM): 2.24% and 1.22% and 0.66%; viability, T/C (compound 0.0949 µM): 0.59% and 0.38% and 0.4%; viability, T/C (compound 0.3 µM): 0.39% and 0.36% and 1.49%"
CC(CO)NC(=O)c1cc(-c2ccc(Cl)cc2)nn(-c2cnn(C)c2)c1=O (stereo not drawn),,,,,,,,"IC50 (compound alone, run of 05/31/2022): > 10 µM"
CC[C@@]1(O)C(=O)OCc2c1cc1n(c2=O)Cc2cc3c(CN(C)C)c(O)ccc3nc2-1,> 0.1 µM and 0.0542 µM,77.6% and 75.8% and 57.6%,53.6% and 53.5% and 41.5%,,,,,"viability, T/C (compound 0.000316 µM): 107% and 108% and 98.2%; viability, T/C (compound 0.001 µM): 99.3% and 117% and 102%; viability, T/C (compound 0.00316 µM): 95.4% and 87.5% and 95.7%; viability, T/C (compound 0.01 µM): 89.1% and 80% and 82.3%"
CCc1c2c(nc3ccc(O)cc13)-c1cc3c(c(=O)n1C2)COC(=O)[C@]3(O)CC,0.0209 µM and 0.0484 µM and 0.0582 µM,,,,,,,"viability, T/C (compound 0.000949 µM): 70.9% and 79.9% and 78.5%; viability, T/C (compound 0.003 µM): 67% and 71.9% and 67.1%; viability, T/C (compound 0.00949 µM): 58.6% and 52.8% and 65%; viability, T/C (compound 0.03 µM): 43.8% and 54.9% and 51.5%; viability, T/C (compound 0.0949 µM): 38.5% and 51% and 50.3%; viability, T/C (compound 0.3 µM): 27.5% and 39.2% and 36.9%"
COc1cc(C2c3cc4c(cc3C(OC3OC5COC(C)OC5C(O)C3O)C3COC(=O)C23)OCO4)cc(OC)c1O (stereo not drawn),1.41 µM and 2.65 µM and 1.83 µM,106% and 96.2% and 98%,86.7% and 100% and 103%,60.8% and 83.3% and 80.6%,53.5% and 62.9% and 58.8%,48.5% and 51% and 43.7%,39% and 34.7% and 37.7%,
COc1cc(Nc2ncc3c(n2)-c2ccc(Cl)cc2C(c2c(F)cccc2OC)=NC3)ccc1C(=O)O,> 10 µM,97.3% and 91.9% and 85.7%,68.5% and 72.4% and 74.3%,63.9% and 60% and 69.9%,44.3% and 55.1% and 50.6%,52.4% and 54.8% and 52.6%,55.5% and 62.7% and 57%,

# More lines, main results first:
IC50 (curve of compound),SMILES,"viability, T/C (compound 0.0316 µM)","viability, T/C (compound 0.1 µM)","viability, T/C (compound 0.316 µM)","viability, T/C (compound 1 µM)","viability, T/C (compound 3.16 µM)","viability, T/C (compound 10 µM)",further results
> 10 µM,CC(C)c1c(-c2ccccc2)nc2c(C#N)c[nH]n2c1=O,108% and 110% and 104%,95% and 105% (2×),98.1% and 105% and 104%,93.7% and 93.4% and 98.7%,91.1% and 103% (2×),91.9% and 98.8% and 81%,
7.03 µM and > 10 µM,CC1(C)CCC(CN2CCN(c3ccc(C(=O)NS(=O)(=O)c4ccc(NCC5CCOCC5)c([N+](=O)[O-])c4)c(Oc4cnc5[nH]ccc5c4)c3)CC2)=C(c2ccc(Cl)cc2)C1,104% (2×) and 108%,90.7% and 115% and 103%,90% and 103% and 106%,111% and 105% and 92.7%,126% and 88.2% and 84.7%,25.9% and 60.7% and 62.5%,
0.0932 µM and 0.0927 µM and 0.202 µM,CC1COCCN1c1cc(-c2ccnn2C)c2ccnc(-c3ccn[nH]3)c2n1 (stereo not drawn),82.7% and 80.5% and 89%,47.8% and 48.9% and 65%,30.6% and 29.8% and 41.7%,27.8% and 28.6% and 29.4%,,,"viability, T/C (compound 0.00316 µM): 93% and 95.6% and 116%; viability, T/C (compound 0.01 µM): 92.2% and 102% and 116%"
6.47 µM and 4.31 µM and 7.58 µM,CC1COCCN1c1cc(C2(S(C)(=N)=O)CC2)nc(-c2ccnc3[nH]ccc23)n1 (stereo not drawn),107% and 105% and 126%,98.2% and 113% and 97.1%,105% and 102% and 95.6%,85% and 85.7% and 89.4%,71.8% and 56.9% and 59.7%,37.3% and 32.7% and 45.1%,
> 3 µM,CCN(c1cc(-c2ccc(CN3CCOCC3)cc2)cc(C(=O)NCc2c(C)cc(C)[nH]c2=O)c1C)C1CCOCC1,,,,,,,"viability, T/C (compound 0.00949 µM): 108% and 104% and 103%; viability, T/C (compound 0.03 µM): 116% and 114% and 95.3%; viability, T/C (compound 0.0949 µM): 120% and 111% and 97.5%; viability, T/C (compound 0.3 µM): 87.1% and 95.9% and 103%; viability, T/C (compound 0.949 µM): 98.3% and 89% and 90%; viability, T/C (compound 3 µM): 101% (2×) and 87.2%"
5.51 µM and 7.03 µM and > 10 µM,COc1ccc([C@@H](O)c2cc(-c3ncnc4cc(N5CCOCC5)ccc34)c(F)cc2Cl)nn1,107% and 86.3% and 109%,101% (2×) and 104%,96.8% and 94.6% and 105%,76% and 81.3% and 72.5%,63.3% and 73.9% and 71.7%,37.4% and 39.9% and 49.7%,
